Common to all, as to type: in vivo
One assay deals with Avena fatua. The assay can be described thus: greenhouse post-emergence herbicidal activity, AVEFA. The note with it: read-out: % activity (solo application); for activity at 2 g/ha / activity at 4 g/ha: 168 h, GS 12-16, 7 DAT; for activity at 2 g/ha: 2 gai/ha; for activity at 4 g/ha: 4 gai/ha; for activity at 0.5 g/ha: 0.5 gai/ha. The protocol: (§1) The following examples serve to illustrate the invention.
(§2) The culture containers used were plastic pots containing loamy sand with approximately 3.0% of humus as substrate. The seeds of the test plants were sown separately for each species.
(§3) For the post-emergence treatment, the test plants were grown to a plant height of from 3 to 15 cm, depending on the plant habit, and only then treated with the active compounds which had been suspended or emulsified in water. To this end, the test plants were either sown directly, and grown in the same containers, or they were first grown separately as seedlings and transplanted into the test containers a few days prior to treatment.
(§4) Depending on the species, the plants were kept at 10-25 °C and 20-35 °C, respectively. The test period extended over 2 to 4 weeks. During this time, the plants were tended and their response to the individual treatments was evaluated.
(§5) Evaluation was carried out using a scale from 0 to 100. 100 means no emergence of the plants, or complete destruction of at least the above-ground parts, and 0 means no damage or normal course of growth. A good herbicidal activity is given at values of at least 70, and very good herbicidal activity is given at values of at least 85.
(§6) The respective stated components A and B, and if appropriate, C were formulated as a 5% by weight strength emulsion concentrate and, with addition of the amount of solvent system, introduced into the spray liquor used for applying the active compound. In the examples, the solvent used was water.
(§7) In the examples below, using the method of S. R. Colby (1967) “Calculating synergistic and antagonistic responses of herbicide combinations”, Weeds 15, p. 22ff., the value E, which is expected if the activity of the individual active compounds is only additive, was calculated.
(§8) E=X+Y−(X·Y/100) • where • X=percent activity using active compound A at an application rate a; • Y=percent activity using active compound B at an application rate b; • E=expected activity (in %) by A+B at application rates a+b.
(§9) The plants used in the greenhouse experiments were of the following species
(§10) In this context, a.i. means active ingredient, based on 100% active ingredient.
(§11) As indicated the application was post emergent (POST) at the respective growth stage (GS) of the weed.
(§12) Assessment was at the indicated days after treatment (DAT).

The test system of the next assay is Setaria faberi. The assay can be described thus: greenhouse post-emergence herbicidal activity, SETFA. The note with it: Setaria faberi, post-emergence, read-out: % activity (solo application); for activity at 2 g/ha: 2 gai/ha; for activity at 4 g/ha: 4 gai/ha; for activity at […]: 0.25 gai/ha; for activity at 0.5 g/ha: 0.5 gai/ha. The method, then:
as §1, §2, §3, §4, §5, §6, §7, §8, §9, §10, §11, §12

A further assay concerns Abutilon theophrasti. Put plainly: greenhouse post-emergence herbicidal activity, ABUTH. The settings on record: read-out: % activity (solo application); for activity at 2 g/ha: 2 gai/ha. The method, then:
as §1, §2, §3, §4, §5, §6, §7, §8, §9, §10, §11, §12

The subject of another assay is Amaranthus tamariscinus. The assay can be described thus: greenhouse post-emergence herbicidal activity, AMATA. The settings on record: 0.25 gai/ha, read-out: % activity (solo application). The protocol: as §1, §2, §3, §4, §5, §6, §7, §8, §9, §10, §11, §12
Another assay deals with Setaria viridis. Put plainly: greenhouse post-emergence herbicidal activity, SETVI. The note with it: for activity at 1 g/ha: 1 gai/ha; for % activity: solo application, SETVI, GS 11-33, 8 DAT, use rate 0.8 gai/ha. The protocol:
as §1, §2, §3, §4, §5, §6, §7, §8, §9, §10, §11, §12

In the next assay the test system is Kochia scoparia. Put plainly: greenhouse post-emergence herbicidal activity, KCHSC. The settings on record: for % activity: solo application, KCHSC. The protocol: as §1, §2, §3, §4, §5, §6, §7, §8, §9, §10, §11, §12
The next assay deals with Eleusine indica. Put plainly: greenhouse post-emergence herbicidal activity, ELEIN. The note with it: 480 h, GS 12-16, 20 DAT, 0.25 gai/ha, read-out: % activity (solo application). The protocol:
as §1, §2, §3, §4, §5, §6, §7, §8, §9, §10, §11, §12

A further assay relates to Digitaria sanguinales. The assay can be described thus: greenhouse post-emergence herbicidal activity, DIGSA. The settings on record: for activity at […]: 0.25 gai/ha. The method, then: as §1, §2, §3, §4, §5, §6, §7, §8, §9, §10, §11, §12
The next assay has as its system Commenline benghalensis. Put plainly: greenhouse post-emergence herbicidal activity, COMBE. The note with it: read-out: % activity (solo application); for activity at 0.5 g/ha: 0.5 gai/ha. The protocol: as §1, §2, §3, §4, §5, §6, §7, §8, §9, §10, §11, §12
The subject of another assay is Echinocloa crus-galli. Put plainly: greenhouse post-emergence herbicidal activity, ECHCG. The settings on record: for % activity: solo application, ECHCG, GS 11-33, 20 DAT. The protocol: as §1, §2, §3, §4, §5, §6, §7, §8, §9, §10, §11, §12
Another assay deals with Sorghum halepense. Put plainly: greenhouse post-emergence herbicidal activity, SORHA. The settings on record: solo application, SORHA, GS 11-33, 20 DAT, use rate 1.6 gai/ha. The protocol:
as §1, §2, §3, §4, §5, §6, §7, §8, §9, §10, §11, §12

For the next assay, the system named is Brachiaria decumbens. Put plainly: greenhouse post-emergence herbicidal activity, BRADC. The note with it: solo application, BRADC, GS 11-33, 20 DAT, use rate 1.6 gai/ha. The protocol: as §1, §2, §3, §4, §5, §6, §7, §8, §9, §10, §11, §12
The next assay has as its system Lolium multiflorum. Put plainly: greenhouse post-emergence herbicidal activity, LOLMU. The settings on record: solo application, LOLMU, GS 11-33, 7 DAT, use rate 1.6 gai/ha. The protocol: as §1, §2, §3, §4, §5, §6, §7, §8, §9, §10, §11, §12
Setting [1] is: Digitaria, post-emergence, 480 h, GS 12-16, 20 DAT, read-out: % activity (solo application).
Where [2] appears, read: 480 h, GS 12-16, 20 DAT, 1 gai/ha.

Read-outs that look alike come from different tables or passages of the source.

Take `C=C[C@]1(C(=O)N[C@@H]2CO[C@H](C(=O)OC)C2)CC(c2cc(F)cc(F)c2)=NO1` [(II.1.cis.A), methyl (2S,4S)-4-[[(5S)-3-(3,5-difluorophenyl)-5-vinyl-4H-isoxazole-5-carbonyl]amino]tetrahydrofuran-2-carboxylate]: the activity at 2 g/ha with Avena fatua came to 20%; in the assay with Setaria faberi (168 h, GS 12-16, 7 DAT), 70%; in the assay with Setaria faberi (504 h, GS 12-16, 21 DAT), 75%; in the assay with Abutilon theophrasti (168 h, GS 12-16, 7 DAT) it was 15%; in the assay on Abutilon theophrasti (504 h, GS 12-16, 21 DAT), 0%. In addition, the activity at 4 g/ha was determined as 25% in the assay with Avena fatua; 70% in the assay on Setaria faberi (168 h, GS 12-16, 7 DAT); 85% in the assay on Setaria faberi (504 h, GS 12-16, 21 DAT).
Consider `C=C[C@]1(C(=O)N[C@H]2CO[C@@H](C(=O)OC)C2)CC(c2cc(F)cc(F)c2)=NO1` [(II.1.cis.B), methyl (2R,4R)-4-[[(5S)-3-(3,5-difluorophenyl)-5-vinyl-4H-isoxazole-5-carbonyl]amino]tetrahydrofuran-2-carboxylate], for which the activity at 2 g/ha in the assay with Avena fatua is 10%. Besides, in the assay with Avena fatua, the activity at 4 g/ha came to 20%. The activity at […] in the assay on Setaria faberi (144 h, GS 12-16, 6 DAT) was found to be 35%; with Setaria faberi (480 h, GS 12-16, 20 DAT), 20%; with Amaranthus tamariscinus (144 h, GS 12-16, 6 DAT) it was 15%; in the assay on Eleusine indica, 20%; in the assay with Digitaria sanguinales (setting [1]) it was 20%. Further, the activity at 0.5 g/ha with Setaria faberi (144 h, GS 12-16, 6 DAT) is 55%; in the assay with Setaria faberi (480 h, GS 12-16, 20 DAT), 25%; with Abutilon theophrasti (144 h, GS 12-16, 6 DAT, 0.5 gai/ha) it was 0%; in the assay on Setaria viridis (Setaria viridis, post-emergence, 480 h, GS 12-16, 20 DAT, 0.5 gai/ha, read-out: % activity (solo application)), 50%; in the assay on Kochia scoparia (Bassia scoparia, post-emergence, 480 h, GS 12-16, 20 DAT, 0.5 gai/ha, read-out: % activity (solo application)), 15%; with Digitaria sanguinales (Digitaria, post-emergence, 480 h, GS 12-16, 20 DAT, 0.5 gai/ha, read-out: % activity (solo application)), 50%.
Regarding `C=C[C@]1(C(=O)N[C@H]2C=C[C@@H](C(=O)OC)C2)CC(c2cc(F)cc(F)c2)=NO1` [(II.5.cis.B), methyl (1S,4R)-4-[[(5S)-3-(3,5-difluorophenyl)-5-vinyl-4H-isoxazole-5-carbonyl]amino]cyclopent-2-ene-1-carboxylate], the activity at 2 g/ha in the assay on Avena fatua is 40%. Further, the activity at […] in the assay with Setaria faberi (144 h, GS 12-16, 6 DAT) was determined as 40%; in the assay on Setaria faberi (480 h, GS 12-16, 20 DAT), 30%; in the assay with Commenline benghalensis (144 h, GS 12-16, 6 DAT, 0.25 gai/ha) it was 40%; in the assay on Amaranthus tamariscinus (144 h, GS 12-16, 6 DAT), 45%; in the assay on Amaranthus tamariscinus (480 h, GS 12-16, 20 DAT), 40%; in the assay with Echinocloa crus-galli (Echinochloa crus-galli, post-emergence, 144 h, GS 12-16, 6 DAT, 0.25 gai/ha, read-out: % activity (solo application)), 15%. The activity at […] with Digitaria sanguinales (setting [1]) came to 35%. In addition, the activity at 0.5 g/ha worked out at 55% with Commenline benghalensis (144 h, GS 12-16, 6 DAT) and 70% with Commenline benghalensis (480 h, GS 12-16, 20 DAT).
Take `C[C@]1(C(=O)N[C@H]2C=C[C@@H](C(=O)O)C2)CC(c2cc(F)cc(F)c2)=NO1` [(II.8.cis.B), (1S,4R)-4-[[(5R)-3-(3,5-difluorophenyl)-5-methyl-4H-isoxazole-5-carbonyl]amino]cyclopent-2-ene-1-carboxylic acid]: the activity at 0.5 g/ha with Avena fatua (144 h, GS 12-16, 6 DAT) stood at 20%; with Avena fatua (480 h, GS 12-16, 20 DAT), 15%; in the assay on Setaria faberi (144 h, GS 12-16, 6 DAT), 20%; with Setaria faberi (480 h, GS 12-16, 20 DAT), 30%; in the assay on Commenline benghalensis (144 h, GS 12-16, 6 DAT) it was 15%. Further, the activity at 2 g/ha with Avena fatua came out at 30%. For the same compound, in the assay on Avena fatua, the activity at 4 g/ha was determined as 30%. Further, the activity at 1 g/ha in the assay on Avena fatua (setting [2]) is 65%; with Setaria faberi (setting [2]), 50%; with Commenline benghalensis (144 h, GS 12-16, 6 DAT, 1 gai/ha), 40%; with Setaria viridis (Setaria viridis, post-emergence, 144 h, GS 12-16, 6 DAT, read-out: % activity (solo application)), 10%; in the assay on Setaria viridis (Setaria viridis, post-emergence, 480 h, GS 12-16, 20 DAT, read-out: % activity (solo application)) it was 20%; with Kochia scoparia (Bassia scoparia, post-emergence, 480 h, GS 12-16, 20 DAT, 1 gai/ha, read-out: % activity (solo application)), 20%. Further, the activity at 1 g/ha with Echinocloa crus-galli (Echinochloa crus-galli, post-emergence, 144 h, GS 12-16, 6 DAT, 1 gai/ha, read-out: % activity (solo application)) was 70%.
For `CCOC(=O)COc1ncccc1Oc1nc(-n2c(=O)cc(C(F)(F)F)n(C)c2=O)c(F)cc1Cl` [I.6], the “% activity” value stood at 10% with Sorghum halepense; 40% in the assay with Brachiaria decumbens; 30% in the assay on Setaria viridis; 55% in the assay with Kochia scoparia (GS 11-33, 20 DAT, use rate 0.8 gai/ha); 15% with Lolium multiflorum; 45% with Echinocloa crus-galli (use rate 1.6 gai/ha). In addition, the “% activity” value in the assay on Digitaria sanguinales (solo application, DIGSA, GS 11-33, 20 DAT, use rate 1.6 gai/ha) came out at 50%.
In the case of `CCOC(=O)COc1ncccc1Oc1nc(-n2c(=O)cc(C(F)(F)F)n(C)c2=O)c(F)cc1Br` [I.9], the “% activity” value in the assay with Setaria viridis was 75%; in the assay on Kochia scoparia (GS 11-33, 7 DAT, use rate 0.4 gai/ha), 60%; in the assay on Echinocloa crus-galli (use rate 0.4 gai/ha), 40%.
